Laboratory results taken from patent US12097261B2, “CDK2 degraders and uses thereof” (Kymera Therapeutics, Inc., priority 2021, dated 2024).

Legend:
[1] = target: T1, CDK2 (Homo sapiens, UniProt P24941); experiment: CDK2 degradation by immunoblotting in OVCAR-8 cells; assay type: cell-based; settings: for DC50: 24 h
T1 construct: endogenous in cells; host or cells: OVCAR-8
Protocol: (§1) CDK2 and CDK1 Degradation by Immunoblotting
(§2) Ovarian cancer cell line OVCAR-8 were cultured in 12-well plates in complete growth medium. A serial dilution of each compound was added to individual wells from a 2× stock solution, and cells were cultured for 24 hours. Cells were collected by centrifugation, and cell pellets lysed with addition of chilled RIPA buffer supplemented with protease/phosphatase inhibitors followed by incubation for 20 minutes on ice. Lysates were clarified by centrifugation and 5×SDS loading buffer was added to the supernatant followed by heating to 100° C. for 10 minutes. An aliquot of the samples were separated by SDS-PAGE and transferred to a nitrocellulose membrane. Immunoblotting was performed according to standard procedures using anti-CDK2 primary antibody (Abcam ab32147) at 1:1000 dilution and IRDye 800CW goat anti-Rabbit secondary antibody (LICOR) and imaged using a LICOR Odyssey instrument. Blots were stained with anti-beta-Actin primary antibody (Cell Signaling Technology mAb #4970) for normalization. The normalized CDK2/Actin values were calculated as a percent of DMSO treated cells and plotted to determine the concentration at which 50% of CDK2 signal is decreased (DC50). The determination of CDK1 degradation was determined similarly using anti-CDK1 primary antibody (Abcam ab131450).

[2] = target: T2, CDK1 (Homo sapiens, UniProt P06493); experiment: CDK1 degradation by immunoblotting in OVCAR-8 cells; assay type: cell-based; settings: 24 h
T2 construct: endogenous in cells; host or cells: OVCAR-8
Protocol: as §1, §2

T2 sequence (P06493 whole entry): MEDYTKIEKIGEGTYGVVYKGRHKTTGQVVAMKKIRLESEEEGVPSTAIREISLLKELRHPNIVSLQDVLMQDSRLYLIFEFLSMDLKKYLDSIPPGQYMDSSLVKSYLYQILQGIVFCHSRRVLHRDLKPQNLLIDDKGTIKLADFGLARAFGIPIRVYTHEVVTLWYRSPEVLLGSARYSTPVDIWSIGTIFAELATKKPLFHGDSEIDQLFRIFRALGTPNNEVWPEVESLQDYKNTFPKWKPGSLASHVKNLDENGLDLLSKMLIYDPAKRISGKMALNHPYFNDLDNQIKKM

SMILES | DC50 [1] | DC50 [2] | CDK2 DC50, (OVCAR-8, 24 h) [1]
C[C@@]1(O)CCC[C@H]1n1c(=O)c(C(F)F)cc2cnc(NC3CCN(S(=O)(=O)CCCCCCCCCCNc4cccc5c4C(=O)N(C4CCC(=O)NC4=O)C5=O)CC3)nc21 (stereo partly shown) [I-15] | 10 to 100 nM | 100 to 1000 nM | 
Cn1c(=O)n(C2CCC(=O)NC2=O)c2cccc(CCCCCCCCC(=O)N3CCC(Nc4ncc5cc(C(F)F)c(=O)n([C@@H]6CCC[C@@]6(C)O)c5n4)CC3)c21 (stereo partly shown) [I-23] |  |  | inactive
Cn1c(=O)n(C2CCC(=O)NC2=O)c2cccc(CCCCCCCCCCCC(=O)N3CCC(Nc4ncc5cc(C(F)F)c(=O)n([C@@H]6CCC[C@@]6(C)O)c5n4)CC3)c21 (stereo partly shown) [I-26] |  |  | inactive
C[C@@]1(O)CCC[C@H]1n1c(=O)c(C(F)F)cc2cnc(NC3CCN(C(=O)COCCOCCNc4cccc5c4C(=O)N(C4CCC(=O)NC4=O)C5=O)CC3)nc21 (stereo partly shown) [I-27] |  |  | inactive
C[C@@]1(O)CCC[C@H]1n1c(=O)c(C(F)F)cc2cnc(NC3CCN(C(=O)CCCCCCCNc4cccc5c4C(=O)N(C4CCC(=O)NC4=O)C5=O)CC3)nc21 (stereo partly shown) [I-28] |  |  | inactive
CC(C)NC(=O)O[C@@H]1CC[C@H](c2cc(NC(=O)c3ccnn3CCOCCOCCOCCOCCCc3cccc4c3n(C)c(=O)n4C3CCC(=O)NC3=O)n[nH]2)C1 (stereo partly shown) [I-55] | 10 to 100 nM | > 5000 nM | 
CC(C)NC(=O)O[C@@H]1CC[C@H](c2cc(NC(=O)c3ccnn3CCOCCOCCOCCOCCCc3ccc4c(c3)n(C)c(=O)n4C3CCC(=O)NC3=O)n[nH]2)C1 (stereo partly shown) [I-59] | 10 to 100 nM | > 5000 nM | 
CC(C)NC(=O)O[C@@H]1CC[C@H](c2cc(NC(=O)c3cnn(CCCCCCCCCCCc4cccn5c(N6CCC(=O)NC6=O)cnc45)c3)n[nH]2)C1 [I-64] | 10 to 100 nM | 1000 to 5000 nM | 
CC(C)NC(=O)O[C@@H]1CC[C@H](c2cc(NC(=O)c3cnn(CCCCCCCCCC#Cc4cccc5c(N6CCC(=O)NC6=O)cncc45)c3)n[nH]2)C1 [I-67] | 100 to 1000 nM | 1000 to 5000 nM | 
CC(C)NC(=O)O[C@@H]1CC[C@H](c2cc(NC(=O)c3cnn(CCCCCCCCCC#Cc4cccn5c(N6CCC(=O)NC6=O)cnc45)c3)n[nH]2)C1 [I-68] | 10 to 100 nM | > 5000 nM | 
CC(C)NC(=O)O[C@@H]1CC[C@H](c2cc(NC(=O)c3cnn(CCOCCOCCOCCCc4cccc5c4n(C)c(=O)n5C4CCC(=O)NC4=O)c3)n[nH]2)C1 (stereo partly shown) [I-72] | 10 to 100 nM | > 5000 nM | 
CC(C)NC(=O)O[C@@H]1CC[C@H](c2cc(CC(=O)c3cnn(CCOCCOCCOCCCc4ccc5c(N6CCC(=O)NC6=O)cncc5c4)c3)[nH]n2)C1 [I-73] | 100 to 1000 nM | > 5000 nM | 
CC(C)NC(=O)O[C@@H]1CC[C@H](c2cc(NC(=O)c3cnn(CCOCCOCCOCCCc4ccn5c(N6CCC(=O)NC6=O)cnc5c4)c3)n[nH]2)C1 [I-74] | 100 to 1000 nM | > 5000 nM | 
CC(C)NC(=O)O[C@@H]1CC[C@H](c2cc(NC(=O)c3cnn(C4CCC(CN(C)C5CCN(Cc6cccc7c6n(C)c(=O)n7C6CCC(=O)NC6=O)CC5)CC4)c3)n[nH]2)C1 (stereo partly drawn) [I-84, (1R,3S)-3-(5-(1-(4-(((1-((1-(2,6-dioxopiperidin-3-yl)-3-methyl-2-oxo-2,3-dihydro-1H-benzo[d]imidazol-4-yl)methyl)piperidin-4-yl)(methyl)amino)methyl)cyclohexyl)-1H-pyrazole-4-carboxamido)-1H-pyrazol-3-yl)cyclopentyl isopropylcarbamate] | 1000 to 5000 nM |  | 
CC(C)NC(=O)O[C@@H]1CC[C@H](c2cc(NC(=O)c3cnn(CCOCCOCCCc4ccc5c(c4)n(C)c(=O)n5C4CCC(=O)NC4=O)c3)[nH]n2)C1 (stereo partly shown) [I-85] |  |  | inactive
CC(C)NC(=O)O[C@@H]1CC[C@H](c2cc(NC(=O)c3ccnn3CCCCCCCCCc3ccc4c(c3)n(C)c(=O)n4C3CCC(=O)NC3=O)n[nH]2)C1 (stereo partly shown) [I-87] |  |  | inactive
CC(C)NC(=O)O[C@@H]1CC[C@H](c2cc(NC(=O)c3ccnn3CCCCCCCCCCCCc3cccc4c3n(C)c(=O)n4C3CCC(=O)NC3=O)n[nH]2)C1 (stereo partly shown) [I-89] |  |  | inactive
CC(C)NC(=O)O[C@@H]1CC[C@H](c2cc(NC(=O)Cc3cnn(C4CCC(CN(C)C5CCN(Cc6cccc7c6n(C)c(=O)n7C6CCC(=O)NC6=O)CC5)CC4)c3)n[nH]2)C1 (stereo partly shown) [I-93] |  |  | inactive

Results, then the compound that gave them:

DC50 [1] | DC50 [2] | CDK2 DC50, (OVCAR-8, 24 h) [1] | SMILES
< 10 nM | > 5000 nM |  | Cc1cc(S(=O)(=O)NCCOCCOCCCc2ccc3c(c2)n(C)c(=O)n3C2CCC(=O)NC2=O)ccc1Nc1ncc2cc(C(F)F)c(=O)n([C@@H]3CCC[C@@]3(C)O)c2n1 (stereo partly shown) [I-5]
< 10 nM | > 5000 nM |  | Cc1cc(S(=O)(=O)NCCOCCOCCOCCOCCCc2ccc3c(c2)n(C)c(=O)n3C2CCC(=O)NC2=O)ccc1Nc1ncc2cc(C(F)F)c(=O)n([C@@H]3CCC[C@@]3(C)O)c2n1 (stereo partly shown) [I-7]
10 to 100 nM | > 5000 nM |  | Cc1cc(S(=O)(=O)NCCOCCOCCCc2cccc3c2n(C)c(=O)n3C2CCC(=O)NC2=O)ccc1Nc1ncc2cc(C(F)F)c(=O)n([C@@H]3CCC[C@@]3(C)O)c2n1 (stereo partly shown) [I-8]
10 to 100 nM | > 5000 nM |  | Cc1cc(S(=O)(=O)NCCOCCOCCOCCOCCNc2cccc3c2C(=O)N(C2CCC(=O)NC2=O)C3=O)ccc1Nc1ncc2cc(C(F)F)c(=O)n([C@@H]3CCC[C@@]3(C)O)c2n1 (stereo partly shown) [I-17]
 |  | inactive | Cn1c(=O)n(C2CCC(=O)NC2=O)c2ccc(CCCOCCOCCOCCOCC(=O)N3CCC(Nc4ncc5cc(C(F)F)c(=O)n([C@@H]6CCC[C@@]6(C)O)c5n4)CC3)cc21 (stereo partly shown) [I-20]
 |  | inactive | Cn1c(=O)n(C2CCC(=O)NC2=O)c2cccc(CCCOCCOCCOCCOCC(=O)N3CCC(Nc4ncc5cc(C(F)F)c(=O)n([C@@H]6CCC[C@@]6(C)O)c5n4)CC3)c21 (stereo partly drawn) [I-21, 3-(4-(1-(4-((6-(Difluoromethyl)-8-((1R,2R)-2-hydroxy-2-methylcyclopentyl)-7-oxo-7,8-dihydropyrido[2,3-d]pyrimidin-2-yl)amino)piperidin-1-yl)-1-oxo-3,6,9,12-tetraoxapentadecan-15-yl)-3-methyl-2-oxo-2,3-dihydro-1H-benzo[d]imidazol-1-yl)piperidine-2,6-dione]
 |  | inactive | Cn1c(=O)n(C2CCC(=O)NC2=O)c2ccc(CCCCCCCCC(=O)N3CCC(Nc4ncc5cc(C(F)F)c(=O)n([C@@H]6CCC[C@@]6(C)O)c5n4)CC3)cc21 (stereo partly shown) [I-22]
 |  | inactive | C[C@@]1(O)CCC[C@H]1n1c(=O)c(C(F)F)cc2cnc(NC3CCN(C(=O)COCCOCCOCCOCCNc4cccc5c4C(=O)N(C4CCC(=O)NC4=O)C5=O)CC3)nc21 (stereo partly shown) [I-24]
 |  | inactive | Cn1c(=O)n(C2CCC(=O)NC2=O)c2ccc(CCCCCCCCCCCC(=O)N3CCC(Nc4ncc5cc(C(F)F)c(=O)n([C@@H]6CCC[C@@]6(C)O)c5n4)CC3)cc21 (stereo partly shown) [I-25]
 |  | inactive | Cn1c(=O)n(C2CCC(=O)NC2=O)c2cccc(CCCOCCOCC(=O)N3CCC(Nc4ncc5cc(C(F)F)c(=O)n([C@@H]6CCC[C@@]6(C)O)c5n4)CC3)c21 (stereo partly shown) [I-29]
10 to 100 nM | 1000 to 5000 nM |  | Cc1cc(S(=O)(=O)NCCOCCOCCOCCOCCCc2cccc3c2n(C)c(=O)n3C2CCC(=O)NC2=O)ccc1Nc1ncc(Br)c(Nc2cccc(F)c2C(N)=O)n1 (stereo not shown) [I-37, 2-((5-Bromo-2-((4-(N-(15-(1-(2,6-dioxopiperidin-3-yl)-3-methyl-2-oxo-2,3-dihydro-1H-benzo[d]imidazol-4-yl)-3,6,9,12-tetraoxapentadecyl)sulfamoyl)-2-methylphenyl)amino)pyrimidin-4-yl)amino)-6-fluorobenzamide]
